Here are results for 13 molecules from patent US11161838B2, “Heterocyclic derivatives as PI3K inhibitors” (Incyte Corporation, priority 2018, dated 2021).

One test addresses PI3Kγ (p110γ) (Homo sapiens (Human), UniProt P48736). The experiment in a line: PI3K-γ Scintillation Proximity Assay. In kind it is biochemical. The following applies: 20 μM PIP2, 2 μM ATP, 13 nM PI3Kγ, 120 min, room temperature. The source says:
Example B. PI3K-γ Scintillation Proximity Assay
[γ-^33P]ATP (10 mCi/mL) and Wheat Germ Agglutinin (WGA) YSi SPA Scintillation Beads was purchased from Perkin Elmer (Waltham, Mass.). Lipid kinase substrate, D-myo-Phosphatidylinositol 4,5-bisphosphate (PtdIns(4,5)P2)D (+)-sn-1,2-di-O-octanoylglyceryl, 3-O-phospho linked (PIP2), CAS 204858-53-7, was purchased from Echelon Biosciences (Salt Lake City, Utah). PI3Kγ (p110γ) Recombinant Human Protein was purchased from Life technology (Grand Island, N.Y.). ATP, MgCl2, DTT, EDTA, MOPS and CHAPS were purchased from Sigma Aldrich (St. Louis, Mo.).
(§1) The kinase reaction was conducted in polystyrene 384-well Greiner Bio-one white plate from Thermo Fisher Scientific in a final volume of 25 μL. Inhibitors were first diluted serially in DMSO and added to the plate wells before the addition of other reaction components. The final concentration of DMSO in the assay was 2%. The PI3Kγ assay was carried out at room temperature in 20 mM MOPS, pH 6.7, 10 mM MgCl2, 5 mM DTT and CHAPS 0.03%. Reactions were initiated by the addition of ATP, the final reaction mixture consisted of 20 μM PIP2, 2 μM ATP, 0.5 μCi [γ-^33P] ATP, 13 nM PI3Kγ. Reactions were incubated for 120 min and terminated by the addition of 40 μL SPA beads suspended in quench buffer: 163 mM potassium phosphate pH 7.8, 20% glycerol, 25 mM EDTA. The final concentration of SPA beads is 1.0 mg/mL. After the plate sealing, plates were shaken overnight at room temperature and centrifuged at 1500 rpm for 10 min, the radioactivity of the product was determined by scintillation counting on Topcount (Perkin-Elmer). IC50 determination was performed by fitting the curve of percent of the solvent control activity versus the log of the inhibitor concentration using the GraphPad Prism 6.0 software.
Background: In a scintillation proximity assay essentially only radioactivity close to the scintillant gives light.

Another test deals with PI3Kδ (p110δ/p85α) (Homo sapiens (Human), UniProt O00329). The experiment in a line: PI3Kδ Scintillation Proximity Assay. In kind it is biochemical. The following applies: 20 μM PIP2, 2 μM ATP, 3.4 nM PI3Kδ, 120 min, room temperature.
From the text: Example C. PI3Kδ Scintillation Proximity Assay
Materials: [γ-^33P]ATP (10 mCi/mL) and Wheat Germ Agglutinin (WGA) YSi SPA Scintillation Beads was purchased from Perkin Elmer (Waltham, Mass.). Lipid kinase substrate, D-myo-Phosphatidylinositol 4,5-bisphosphate (PtdIns(4,5)P2)D (+)-sn-1,2-di-O-octanoylglyceryl, 3-O-phospho linked (PIP2), CAS 204858-53-7, was purchased from Echelon Biosciences (Salt Lake City, Utah). PI3Kδ (p110δ/p85α) Recombinant Human Protein was purchased from Eurofins (St Charles, Mo.). ATP, MgCl2, DTT, EDTA, MOPS and CHAPS were purchased from Sigma Aldrich (St. Louis, Mo.).
as §1, with “PI3K6” for “PI3Kγ”, “3.4” for “13”, “PI3K6.” for “PI3Kγ.”, “(PerkinElmer).” for “(Perkin-Elmer).”

Test [1] deals with Phosphorylated Ribosomal Protein S6 (RPS6) in THP-1 cells. As to the kind of experiment: THP-1 RPS6 ELISA Assay. The test is classed as cell-based. The following applies: Homo sapiens; serum starved THP-1 cells, 2 hours with compound, then 10 nM MCP-1 for 15 minutes; Phospho-RPS6 ELISA; read-out: PI3Kγ_THP1_RPS6_ELISA IC50. The protocol: Example A. THP-1 RPS6 ELISA Assay
To measure the Phosphorylated Ribosomal Protein S6 (RPS6) in cell lysates, THP-1 cells (Human Acute Monocytic Leukemia) are purchased from ATCC (Manassas, Va.) and maintained in RPMI with 10% FBS (Gibco/Life Technologies, Carlsbad, Calif.). For the assay, THP-1 cells are serum starved overnight in RPMI, then plated in RPMI (2×10^5 cells/well in 90 μL) into 96-well flat-bottom tissue culture treated plates (Corning, Corning, N.Y.), in the presence or absence of a concentration range of test compounds. Covered plates are incubated for 2 hours at 37° C., 5% CO2 then treated with or without 10 nM MCP-1 (MYBioSource, San Diego, Calif.) for 15 minutes at 37° C., 5% CO2. Plates are centrifuged at 1600 RPM and supernatants are removed. Cells are lysed in Lysis Buffer (Cell Signaling, Danvers, Mass.) with Protease Inhibitor (Calbiochem/EMD, Germany), PMSF (Sigma, St Louis Mo.), HALTS (Thermo Fisher, Rockford, Ill.) for 30 min on wet ice. Cell lysates are frozen at −80 OC before testing. The lysates are tested in the Human/Mouse/Rat Phospho-RPS6 ELISA (R&D Systems, Inc. Minn, Minn.). The plate is measured using a microplate reader (SpectraMax M5—Molecular Devices, LLC Sunnyvale, Calif.) set to 450 nm with a wavelength correction of 540. IC50 determination is performed by fitting the curve of inhibitor percent inhibition versus the log of the inhibitor concentration using the GraphPad Prism 5.0 software.
(ELISA stands for enzyme-linked immunosorbent assay.)

pIC50: −log10 of the molar value. Counter-ions that a name gives are not always drawn. Bounds are passed on as bounds.

Sequence of PI3Kγ (p110γ) (P48736 whole entry): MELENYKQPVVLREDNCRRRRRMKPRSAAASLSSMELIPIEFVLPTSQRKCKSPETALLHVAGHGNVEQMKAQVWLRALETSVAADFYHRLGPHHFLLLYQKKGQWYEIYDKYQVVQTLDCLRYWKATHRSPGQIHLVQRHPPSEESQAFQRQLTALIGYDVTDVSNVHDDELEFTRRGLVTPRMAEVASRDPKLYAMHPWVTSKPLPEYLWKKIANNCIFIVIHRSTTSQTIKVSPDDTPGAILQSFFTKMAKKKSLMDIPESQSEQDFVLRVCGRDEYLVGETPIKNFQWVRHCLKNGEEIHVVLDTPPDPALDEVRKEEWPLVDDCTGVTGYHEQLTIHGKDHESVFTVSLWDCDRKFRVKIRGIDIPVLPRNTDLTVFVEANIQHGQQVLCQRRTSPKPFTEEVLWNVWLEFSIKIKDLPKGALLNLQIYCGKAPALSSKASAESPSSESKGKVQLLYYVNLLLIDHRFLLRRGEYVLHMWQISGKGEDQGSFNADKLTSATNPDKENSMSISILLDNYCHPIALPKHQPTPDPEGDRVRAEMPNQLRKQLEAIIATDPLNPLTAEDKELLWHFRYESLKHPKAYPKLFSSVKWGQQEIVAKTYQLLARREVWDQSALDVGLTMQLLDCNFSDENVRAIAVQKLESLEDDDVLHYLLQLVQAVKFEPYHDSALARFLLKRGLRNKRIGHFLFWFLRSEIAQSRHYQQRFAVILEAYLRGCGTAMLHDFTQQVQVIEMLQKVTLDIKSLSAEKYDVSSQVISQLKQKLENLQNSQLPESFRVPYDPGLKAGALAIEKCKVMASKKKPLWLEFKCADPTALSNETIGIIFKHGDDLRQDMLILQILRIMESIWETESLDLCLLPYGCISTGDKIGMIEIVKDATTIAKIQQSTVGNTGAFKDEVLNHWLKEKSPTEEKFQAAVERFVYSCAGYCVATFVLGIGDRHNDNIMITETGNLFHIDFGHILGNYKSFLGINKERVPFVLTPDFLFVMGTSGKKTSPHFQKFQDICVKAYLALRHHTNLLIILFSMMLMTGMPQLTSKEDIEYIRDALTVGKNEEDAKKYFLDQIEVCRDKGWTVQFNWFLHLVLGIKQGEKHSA
Sequence of PI3Kδ (p110δ/p85α) (O00329 whole entry): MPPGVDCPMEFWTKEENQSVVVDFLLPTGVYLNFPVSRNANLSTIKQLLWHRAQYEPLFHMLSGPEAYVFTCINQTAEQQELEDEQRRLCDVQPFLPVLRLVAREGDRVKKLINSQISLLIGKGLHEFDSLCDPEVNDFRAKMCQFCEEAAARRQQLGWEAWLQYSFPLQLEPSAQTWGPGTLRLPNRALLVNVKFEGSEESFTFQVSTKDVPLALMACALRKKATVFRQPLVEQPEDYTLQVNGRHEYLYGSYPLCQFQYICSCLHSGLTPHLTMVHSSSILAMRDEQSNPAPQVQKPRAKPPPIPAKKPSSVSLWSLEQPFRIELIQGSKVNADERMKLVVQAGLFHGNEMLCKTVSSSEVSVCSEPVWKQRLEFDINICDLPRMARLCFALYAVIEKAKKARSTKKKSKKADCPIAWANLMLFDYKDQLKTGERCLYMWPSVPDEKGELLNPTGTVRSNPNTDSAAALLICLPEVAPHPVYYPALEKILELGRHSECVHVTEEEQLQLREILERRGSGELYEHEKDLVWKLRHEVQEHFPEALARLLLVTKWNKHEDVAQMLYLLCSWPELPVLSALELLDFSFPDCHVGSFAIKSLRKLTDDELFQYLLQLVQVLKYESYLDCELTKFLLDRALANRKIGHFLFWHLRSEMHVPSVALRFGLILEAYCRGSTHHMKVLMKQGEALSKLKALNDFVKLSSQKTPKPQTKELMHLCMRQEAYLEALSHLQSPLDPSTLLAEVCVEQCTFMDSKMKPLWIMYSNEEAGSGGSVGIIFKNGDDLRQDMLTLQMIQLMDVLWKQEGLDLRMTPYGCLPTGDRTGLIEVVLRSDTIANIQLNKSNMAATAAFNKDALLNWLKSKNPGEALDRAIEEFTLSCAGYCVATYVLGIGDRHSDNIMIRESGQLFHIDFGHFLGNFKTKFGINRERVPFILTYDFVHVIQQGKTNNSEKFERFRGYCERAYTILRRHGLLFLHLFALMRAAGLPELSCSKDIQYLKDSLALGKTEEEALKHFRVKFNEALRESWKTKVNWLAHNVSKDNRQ
Sequence of PI3Kδ (p110δ/p85α) (P27986 whole entry partner): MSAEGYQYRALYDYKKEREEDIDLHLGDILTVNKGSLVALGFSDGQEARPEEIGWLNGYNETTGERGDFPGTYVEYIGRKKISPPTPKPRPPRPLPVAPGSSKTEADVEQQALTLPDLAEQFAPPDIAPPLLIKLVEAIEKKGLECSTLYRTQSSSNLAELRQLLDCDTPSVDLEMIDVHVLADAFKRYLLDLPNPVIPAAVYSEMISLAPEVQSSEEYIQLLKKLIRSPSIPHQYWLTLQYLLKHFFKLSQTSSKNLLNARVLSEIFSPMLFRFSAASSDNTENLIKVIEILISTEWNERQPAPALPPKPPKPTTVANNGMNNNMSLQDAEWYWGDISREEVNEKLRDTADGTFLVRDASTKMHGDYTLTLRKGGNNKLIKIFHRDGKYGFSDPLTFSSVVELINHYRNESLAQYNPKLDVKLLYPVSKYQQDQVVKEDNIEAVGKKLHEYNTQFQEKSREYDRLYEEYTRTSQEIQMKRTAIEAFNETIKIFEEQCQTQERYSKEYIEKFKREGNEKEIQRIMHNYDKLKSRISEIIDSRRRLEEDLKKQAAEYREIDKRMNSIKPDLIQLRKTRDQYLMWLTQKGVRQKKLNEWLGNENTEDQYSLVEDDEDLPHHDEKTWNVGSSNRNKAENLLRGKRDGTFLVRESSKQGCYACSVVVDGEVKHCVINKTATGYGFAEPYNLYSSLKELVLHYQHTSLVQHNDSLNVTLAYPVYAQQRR

The term pIC50 denotes −log10 of the IC50, conventionally taken in molar units. As for `C[C@@H](C1CC1)N1Cc2cc(-c3cnc(N)c(C(=O)NC4CCOCC4)n3)ccc2C1=O` [Example 1, (S)-3-Amino-6-(2-(1-cyclopropylethyl)-1-oxoisoindolin-5-yl)-N-(tetrahydro-2H-pyran-4-yl)pyrazine-2-carboxamide trifluoroacetate salt], the pIC50 was no less than 7.00 at PI3Kγ (p110γ), 5.70 to 6.30 against PI3Kδ (p110δ/p85α) and no more than 6.00 in test [1].
In the same order, the values of `CC(C)NC(=O)c1nc(-c2ccc3c(c2)CN([C@@H](C)C2CC2)C3=O)cnc1N` [Example 2, (S)-3-Amino-6-(2-(1-cyclopropylethyl)-1-oxoisoindolin-5-yl)-N-isopropylpyrazine-2-carboxamide trifluoroacetate salt] are no less than 7.00, 5.70 to 6.30 and no more than 6.00.
As for `C[C@@H](C1CC1)N1Cc2cc(-c3cnc(N)c(C(=O)NC4CCOCC4)n3)cc(S(C)(=O)=O)c2C1=O` [Example 3, (S)-3-Amino-6-(2-(1-cyclopropylethyl)-7-(methylsulfonyl)-1-oxoisoindolin-5-yl)-N-(tetrahydro-2H-pyran-4-yl)pyrazine-2-carboxamide trifluoroacetate salt], the values for the pIC50 (against PI3Kγ (p110γ); against PI3Kδ (p110δ/p85α); in test [1]) were no less than 7.00, 6.30 to 7.00 and 6.30 to 7.00, respectively.
For `CC(C)NC(=O)c1nc(-c2cc3c(c(S(C)(=O)=O)c2)C(=O)N([C@@H](C)C2CC2)C3)cnc1N` [Example 4, (S)-3-Amino-6-(2-(1-cyclopropylethyl)-7-(methylsulfonyl)-1-oxoisoindolin-5-yl)-N-isopropylpyrazine-2-carboxamide trifluoroacetate salt], the pIC50 against PI3Kγ (p110γ) is no less than 7.00; against PI3Kδ (p110δ/p85α), 5.70 to 6.30; in test [1] it was no more than 6.00.
With `Cc1cc(-c2cnc(N)cn2)cc2cn(C(C)C3CC3)nc12` (centres unmarked) [Example 5, 5-(2-(1-Cyclopropylethyl)-7-methyl-2H-indazol-5-yl)pyrazin-2-amine, trifluoroacetate], the pIC50 against PI3Kγ (p110γ) was 6.30 to 7.00; at PI3Kδ (p110δ/p85α) it was no more than 5.70.
With `CC(C1CC1)n1nc2ccc(-c3cnc(N)cn3)cc2n1` (centres unmarked) [Example 6, 5-(2-(1-Cyclopropylethyl)-2H-benzo[d][1,2,3]triazol-5-yl)pyrazin-2-amine, trifluoroacetate], the values for the pIC50 on PI3Kγ (p110γ) and against PI3Kδ (p110δ/p85α) were 5.70 to 6.30 and no more than 5.70, respectively.
`C[C@@H](C1CC1)N1Cc2cc(-c3cnc(N)c(-c4ccnn4C)n3)cc(S(C)(=O)=O)c2C1=O` [Example 7, (S)-5-(5-Amino-6-(1-methyl-1H-pyrazol-5-yl)pyrazin-2-yl)-2-(1-cyclopropylethyl)-7-(methylsulfonyl)isoindolin-1-one, trifluoroacetate salt]: the pIC50 was no less than 7.00 on PI3Kγ (p110γ), 5.70 to 6.30 at PI3Kδ (p110δ/p85α) and no more than 6.00 in test [1].
With `C[C@@H](C1CC1)N1Cc2cc(-c3cnc(N)c(-c4cnn(C)c4)n3)cc(S(C)(=O)=O)c2C1=O` [Example 8, (S)-5-(5-Amino-6-(1-methyl-1H-pyrazol-4-yl)pyrazin-2-yl)-2-(1-cyclopropylethyl)-7-(methylsulfonyl)isoindolin-1-one, trifluoroacetate salt], the pIC50 was no less than 7.00 against PI3Kγ (p110γ), 5.70 to 6.30 at PI3Kδ (p110δ/p85α) and 6.00 to 6.30 in test [1].
The corresponding values for `Cc1ncc(-c2nc(-c3cc4c(c(S(C)(=O)=O)c3)C(=O)N([C@@H](C)C3CC3)C4)cnc2N)s1` [Example 9, (S)-5-(5-Amino-6-(2-methylthiazol-5-yl)pyrazin-2-yl)-2-(1-cyclopropylethyl)-7-(methylsulfonyl)isoindolin-1-one, trifluoroacetate salt] are no less than 7.00, 6.30 to 7.00 and 6.00 to 6.30.
For the molecule `Cc1n[nH]cc1-c1nc(-c2cc3c(c(S(C)(=O)=O)c2)C(=O)N([C@@H](C)C2CC2)C3)cnc1N` [Example 10, (S)-5-(5-Amino-6-(3-methyl-1H-pyrazol-4-yl)pyrazin-2-yl)-2-(1-cyclopropylethyl)-7-(methylsulfonyl)isoindolin-1-one, trifluoroacetate salt], the pIC50 is no less than 7.00 on PI3Kγ (p110γ), 5.70 to 6.30 against PI3Kδ (p110δ/p85α) and no more than 6.00 in test [1].
With `C[C@@H](C1CC1)N1Cc2cc(-c3cnc(N)c(-c4cn[nH]c4)n3)cc(S(C)(=O)=O)c2C1=O` [Example 11, (S)-5-(5-Amino-6-(1H-pyrazol-4-yl)pyrazin-2-yl)-2-(1-cyclopropylethyl)-7-(methylsulfonyl)isoindolin-1-one, trifluoroacetate salt], the pIC50 was no less than 7.00 on PI3Kγ (p110γ) and 5.70 to 6.30 against PI3Kδ (p110δ/p85α).
On to `C[C@@H](C1CC1)N1Cc2cc(-c3cnc(N)c(-n4cncn4)n3)cc(S(C)(=O)=O)c2C1=O` [Example 12, (S)-5-(5-Amino-6-(1H-1,2,4-triazol-1-yl)pyrazin-2-yl)-2-(1-cyclopropylethyl)-7-(methylsulfonyl)isoindolin-1-one, trifluoroacetate salt], for which the figures for the pIC50 (at PI3Kγ (p110γ); against PI3Kδ (p110δ/p85α); in test [1]) were no less than 7.00, 5.70 to 6.30 and no more than 6.00, respectively.
On to `C[C@@H](C1CC1)N1Cc2cc(-c3cnc(N)c(C4CN(C(=O)C5(C(F)(F)F)CC5)C4)n3)ccc2C1=O` [Example 13, (S)-5-(5-Amino-6-(1-(1-(trifluoromethyl)cyclopropane-1-carbonyl)azetidin-3-yl)pyrazin-2-yl)-2-(1-cyclopropylethyl)isoindolin-1-one, 0.7× trifluoroacetate salt], for which the pIC50 was no less than 7.00 at PI3Kγ (p110γ) and no more than 5.70 at PI3Kδ (p110δ/p85α).
